Laboratory results as given in patent US7951752B2, “O-cyclopropyl-carboxanilides and their use as fungicides” (Syngenta Crop Protection, Inc., priority 2002, dated 2011).

CC(C)CC1CC1c1ccccc1NC(=O)c1cn(C)cc1C(F)(F)F (stereo not shown) [Compound 3.17, 1-methyl-4-trifluoromethyl-1H-pyrrole-3-carboxylic acid [2-(2-isobutyl-cyclopropyl)phenyl]amide]
melting point: 61 to 65 °C
